# Data published in patent publication US20070270403A1 (priority 2003, published 2007).
# Where two headings read alike, the source gives them in different places.
# What was measured:
# DA release in NAcc [1] = assay: In vivo microvoltammetry, DA release in NAcc (risperidone studies); set-up: species or system Sprague-Dawley Rattus Norvegicus
# Description: (§1) In vivo microvoltammetry was used to detect dopamine (DA) and serotonin (5-HT) release from Nucleus Accumbens (NAcc) of freely moving, male, Sprague Dawley laboratory rats, while animals' locomotor (forward ambulations) and stereotypic behavior (fine movements of sniffing and grooming) were monitored at the same time with infrared photobeams. Monoamine release mechanisms were determined by using a depolarization blocker, gamma-butyrolactone (γBL). Miniature carbon sensors, BRODERICK PROBE® Lauric Acid Microelectrodes, smaller than a human hair, were used in conjunction with a semidifferential electrochemical circuit, to detect release of each monoamine in separate signals and within seconds. […] The hypothesis for the present studies is derived from a growing body of evidence that cocaine-induced psychosis and schizophrenic psychosis share similar neurochemical and behavioral manifestations.
# (§2) Animals were purchased from Charles River Laboratories, Kingston, N.Y. and were housed in our animal care facilities for two weeks before surgery was performed. The Animal Care Facility operates under the auspices of the CUNY, City College Institutional Animal Care and Use Committee (IACUC) in compliance with National Institute of Health (NIH) guidelines. The weight range for the animals, at the time of the studies, was 350-475 g. Animals were group housed before surgery, individually housed after surgery and fed Purina Rat Chow and water ad libitum. A twelve hr dark-light cycle was maintained both in the housing of the animals and throughout the experimental studies. […] A Ag/AgCl reference electrode was placed in contact with dura, 7 mm anteriorally and contralaterally to the indicator microelectrode. A stainless steel auxiliary microelectrode, was placed in contact with dura.
# In vivo microvoltammetric studies on conscious Sprague-Dawley laboratory rats were begun nine to fifteen days after the aseptic surgical operations were performed. On each experimental day, animals were placed in a Plexiglas-copper faradaic chamber. The three-microelectrode assembly, enclosed within the animal's prosthetic acrylic cap, was connected to a CV37 detector by means of a mercury commutator (Br. Res. Instr., Princeton, N.J.), a flexible cable, and a mating connector (BJM Electronics, Staten Island, N.Y.). […] In vivo microvoltammetric scans were recorded in sec and repeated every five min for a period of 2 hrs before each treatment and a period of two hrs after each treatment.
# The first hr pre-drug, allowed exploratory behavior. […] Each animal was monitored for possible recovery, withdrawal or after-effects. of each treatment WHILE open-field behaviors of locomotions and stereotypy were monitored with computerized infrared photocell beams which surround the faradaic chamber.
# DA2 receptor = target: T1, DA2 receptor (Rattus norvegicus, UniProt P61169); details: cited from earlier work
# T1 construct: host or cells: brain (nucleus accumbens) of dosed animals
# T1 sequence (P61169 whole entry): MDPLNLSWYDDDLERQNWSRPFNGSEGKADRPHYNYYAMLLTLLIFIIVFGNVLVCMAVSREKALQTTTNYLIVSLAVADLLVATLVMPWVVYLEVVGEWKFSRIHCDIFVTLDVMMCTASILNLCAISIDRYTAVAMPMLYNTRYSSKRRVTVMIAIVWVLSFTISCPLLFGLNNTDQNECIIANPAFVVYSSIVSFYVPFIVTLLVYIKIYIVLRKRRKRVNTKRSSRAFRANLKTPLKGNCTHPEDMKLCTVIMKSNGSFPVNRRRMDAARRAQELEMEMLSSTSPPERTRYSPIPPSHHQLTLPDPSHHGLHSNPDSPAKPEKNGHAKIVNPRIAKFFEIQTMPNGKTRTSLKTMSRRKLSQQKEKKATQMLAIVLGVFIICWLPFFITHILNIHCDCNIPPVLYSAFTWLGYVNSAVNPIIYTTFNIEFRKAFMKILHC
# [2] = humans, cited from earlier work
# DA2 receptors = DA2 receptors (Homo sapiens, UniProt P14416); details: ketanserin: DA receptors; cited from earlier work
# DA2 receptors, sequence (P14416 whole entry): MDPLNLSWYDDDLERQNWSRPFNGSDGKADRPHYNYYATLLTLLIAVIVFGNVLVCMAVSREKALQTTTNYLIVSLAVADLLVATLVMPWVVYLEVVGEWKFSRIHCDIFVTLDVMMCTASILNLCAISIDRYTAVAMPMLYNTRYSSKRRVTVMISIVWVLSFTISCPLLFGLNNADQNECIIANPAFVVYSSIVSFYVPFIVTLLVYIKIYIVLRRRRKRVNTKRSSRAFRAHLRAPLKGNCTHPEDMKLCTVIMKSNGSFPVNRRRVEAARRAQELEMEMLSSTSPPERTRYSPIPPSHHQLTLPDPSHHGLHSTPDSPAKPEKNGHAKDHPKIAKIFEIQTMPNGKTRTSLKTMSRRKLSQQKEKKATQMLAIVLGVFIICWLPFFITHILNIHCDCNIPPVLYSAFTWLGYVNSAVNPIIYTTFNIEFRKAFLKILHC
# [3] = test system: Sprague-Dawley laboratory rats; assay: Stereotypy (fine movements of sniffing and grooming) by infrared photobeams (risperidone studies); type: in vivo, Sprague-Dawley Rattus Norvegicus
# Description: (§3) Behaviors were monitored with infrared photobeams which surrounded the faradaic chamber. Open-field behaviors of locomotion (ambulations) and stereotypy (fine movements of sniffing and grooming) were recorded in sec and repeated every five min for a period of 2 hrs before each treatment and a period of 2 hrs after each treatment. Open-field behaviors were monitored simultaneously with in vivo microvoltammetric recordings of monoamines.
# (§4) The first hr pre-drug, allowed exploratory behavior. Exploratory behavior is defined as open-field behavior of ambulations (forward locomotion) and stereotypy (fine movements of sniffing and grooming), wherein animals respond to the stimuli of a novel environment with a high frequency of behavioral counts. The second hr pre-drug allowed the animal to become habituated before treatment. […] In the acute studies, each drug was administered […]. For the subacute studies, twenty four hrs later, the animals were again placed in the faradaic behavioral chamber and no further drug was administered. Each animal was monitored for possible recovery, withdrawal or after-effects. of each treatment WHILE open-field behaviors of locomotions and stereotypy were monitored with computerized infrared photocell beams which surround the faradaic chamber.
# (§5) The faradaic chamber was made of plexiglas and covered with copper wire to refract possible electrical artifacts (dimensions: 24 inch (width) by 18 inch (depth) by 23.5 inch (height)). A 16 by 16 array of infrared photobeams, held in place by an aluminum frame, was situated ¾ inch above the Plexiglas floor of the chamber to detect locomotor and stereotypic movements. Photobeams were sampled by a Pentium computer to define the x-y position of the animal within a 1.5 inch resolution every 100 msec. When an x-y position was calculated, it was used to define a particular behavioral parameter. This system is a modified version of an Activity Pattern Monitor (APM) (San Diego Instruments, San Diego, Calif.). Behavioral data is presented in terms of Frequency of Events.
# (§6) Neurochemical and behavioral data, derived from the last thirty minutes of the habituation period, provided the baseline data. […] Where appropriate, data points in the time course were subjected to 95% Confidence Limits (C.L.).
# 5-HT release in NAcc [4] = assay: In vivo microvoltammetry, 5-HT release in NAcc (risperidone studies); set-up: species or system Sprague-Dawley Rattus Norvegicus
# Description: as §1, §2
# (§7) In vivo microvoltammetric studies on conscious Sprague-Dawley laboratory rats were begun nine to fifteen days after the aseptic surgical operations were performed. On each experimental day, animals were placed in a Plexiglas-copper faradaic chamber. The three-microelectrode assembly, enclosed within the animal's prosthetic acrylic cap, was connected to a CV37 detector by means of a mercury commutator (Br. Res. Instr., Princeton, N.J.), a flexible cable, and a mating connector (BJM Electronics, Staten Island, N.Y.). The CV37 detector was electrically connected to a Minigard surge suppresser (Jefferson Electric, Magnetek, N.Y.) which was then connected to an electrical ground in isolation. […] Each animal was used as its own control. In vivo microvoltammetric scans were recorded in sec and repeated every five min for a period of 2 hrs before each treatment and a period of two hrs after each treatment.
# as §4
# [5] = test system: 5-hydroxyindoleacetic acid (5-HIAA) in NAcc; details: risperidone 0.2 mg/kg s.c. and 2.0 mg/kg s.c., time-dependent; cited from earlier work
# [6] = test system: Sprague-Dawley laboratory rats; assay: Locomotion (ambulations) by infrared photobeams (risperidone studies); type: in vivo, Sprague-Dawley Rattus Norvegicus
# Description: as §3, §4, §5, §6
# DA release in NAcc [7] = assay: In vivo microvoltammetry, DA release in NAcc (clozapine studies); set-up: species or system Sprague-Dawley Rattus Norvegicus; details: ketanserin 3 mg/kg s.c. substituted for clozapine
# Description: (§8) There is an increasing awareness that a psychosis, similar to that of schizophrenic psychosis, can be derived from cocaine addiction. […] Release mechanisms for monoamines, were determined by using a depolarization blocker, gamma-butyrolactone (γBL). […] Acute and Subacute studies were performed for each treatment group.
# (§9) The stereotaxic equipment was purchased from David Kopf Instruments, Tujunga, Calif. A Ag/AgCl reference electrode was placed in contact with dura, 7 mm anteriorally and contralaterally to the indicator microelectrode. A stainless steel auxiliary microelectrode was placed in contact with dura. BRODERICK PROBE® microelectrodes were manufactured on site.
# as §7, with “the animal was” for “animals were”, “control. Changes in synaptic concentrations of DA and 5-HT are presented as percent change (% of control) in order to minimize normal between-animal variations. […]” for “control.”
# (§10) Potentials were applied with a CV37 detector (BAS, West Lafayette, Ind.). Potentials were applied from −0.2V to +0.4V with respect to a Ag/AgCl (1M NaCl) electrode, at a scan rate of 10 mV/sec at time constants of 5 and 1 tau. One scan was completed in 60 sec. Non-faradaic charging current was eliminated in the first 25 sec.
# (§11) Calibration curves were determined experimentally, in vitro, in a freshly prepared deoxygenated physiological saline-phosphate buffer solution (0.01 M, pH=7.4). We use ultra pure Nitrogen (N2) (T. W. Smith Corp., Bklyn, N.Y.) to deoxygenate the buffer solution. […] Calibration studies were also performed in freshly prepared deoxygenated buffer solutions containing phosphotidylethanolamine (PEA), combined with bovine serum albumin (BSA) (Sigma Aldrich, St. Louis, Mo.), a solution which closely mimics brain constituents. […] Detection limits for basal synaptic concentrations of DA and 5-HT in NAcc were 12 nM and 2 nM respectively.
# 5-HT release in NAcc [8] = assay: In vivo microvoltammetry, 5-HT release in NAcc (clozapine studies); set-up: species or system Sprague-Dawley Rattus Norvegicus; details: ketanserin 3 mg/kg s.c. substituted for clozapine
# Description: as §8, §9
# as §7, with “the animal was” for “animals were”, “control. Changes in synaptic concentrations of DA and 5-HT are presented as percent change (% of control) in order to minimize normal between-animal variations. […]” for “control.”
# as §10, §11
# 5-HT2A receptors = 5-HT2A receptors (Homo sapiens, UniProt P28223); details: cited from earlier work
# 5-HT2A receptors, sequence (P28223 whole entry): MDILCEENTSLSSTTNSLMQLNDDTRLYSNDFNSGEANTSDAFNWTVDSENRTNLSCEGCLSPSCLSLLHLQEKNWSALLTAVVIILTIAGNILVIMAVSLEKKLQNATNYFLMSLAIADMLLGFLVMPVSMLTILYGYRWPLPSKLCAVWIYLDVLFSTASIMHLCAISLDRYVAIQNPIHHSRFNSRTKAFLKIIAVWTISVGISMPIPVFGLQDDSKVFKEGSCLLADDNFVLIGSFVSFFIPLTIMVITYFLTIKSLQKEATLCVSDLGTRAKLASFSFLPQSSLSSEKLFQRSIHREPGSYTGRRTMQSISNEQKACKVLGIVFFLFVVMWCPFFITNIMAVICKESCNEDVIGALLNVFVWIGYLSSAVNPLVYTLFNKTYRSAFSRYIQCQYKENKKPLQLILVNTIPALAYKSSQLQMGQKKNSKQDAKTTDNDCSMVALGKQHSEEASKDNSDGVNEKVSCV
# [9] = test system: Sprague-Dawley laboratory rats; assay: Locomotor activity (ambulations) by infrared photobeams (clozapine studies); type: in vivo, Sprague-Dawley Rattus Norvegicus; details: ketanserin 3 mg/kg s.c. substituted for clozapine
# Text: Locomotor activity (ambulation) was monitored with infrared photobeams at the same time as DA and 5-HT release in NAcc was detected with BRODERICK PROBES® in conjunction with In Vivo Microvoltammetry. The chamber was faradaic, covered with copper to refract possible electrical artifacts (dimensions: 24 in (width) by 18 in (depth) by 23.5 in (height)). A 16 by 16 array of these infrared photobeams, were held in place by an aluminum frame which was situated ¾ in above the Plexiglas floor of the chamber to detect locomotor activity. Photobeams were sampled by a Pentium computer to define the x-y position of the animal within a 1.5 in resolution every 100 msec. When an x-y position was calculated, it was used to define the frequency of locomotor activity in counts. The locomotor activity system is a modified version of an Activity Pattern Monitor (APM) (San Diego Instruments, San Diego, Calif.). Behavioral data is presented in absolute frequency, i.e., number of counts recorded.
# The first hr pre-drug allowed exploratory behavior. Exploratory behavior is defined as open-field behavior of ambulations (forward locomotion) wherein animals respond to the stimuli of a novel environment with high frequency of behavioral counts. The second hr pre-drug allowed the animal to become habituated before treatment.
# In the Acute studies, each drug was administered at the end of the habituation period. Baseline (control) values were taken every five min for the last thirty min of the habituation period at which time drug injection(s) took place. Electrochemical recordings for DA and 5-HT release in NAcc, were continued for two hrs; at the same time, locomotor behavior continued to be monitored and recorded with infrared photobeams. At the end of the 2 hr drug(s) study, animals were then placed back in their home cages.
# In the Subacute studies, which took place twenty-four hrs later, the animals were again placed in the faradaic behavioral chamber and no further drug was administered. Recordings of separate electrochemical signals for DA and 5-HT release in NAcc, were taken for one hr; at the same time, locomotor behavior was monitored and recorded with infrared photobeams.
# as §6
# [10] = risperidone 2 mg/kg s.c. + cocaine 10 mg/kg i.p., versus cocaine group
# [11] = 24 hr after risperidone 2 mg/kg s.c.
# [12] = 24 hr after single dose, no further drug
# [13] = risperidone 2 mg/kg s.c. + cocaine 10 mg/kg i.p., entire 2 hr period
# [14] = risperidone 2 mg/kg s.c., cocaine 10 mg/kg i.p. or both, 2 hr
smiles,measurement,setting,value
"Cc1nc2n(c(=O)c1CCN1CCC(c3noc4cc(F)ccc34)CC1)CCCC2 [Risperidone, risperidone]","DA release in NAcc Day 2 versus Day 1 baseline, Subacute","DA release in NAcc [1]; 24 hr after single dose (risperidone 2 mg/kg s.c., cocaine 10 mg/kg i.p. or both), no further drug",returned to baseline
same,"DA release in NAcc versus baseline (habituation), Day 1 Acute","DA release in NAcc [1]; risperidone 2 mg/kg s.c. (N=5) or cocaine 10 mg/kg i.p. (N=4), 2 hr",significantly increased
same,"Effect on cocaine-induced DA release, Acute, first hr",DA release in NAcc [1]; [10],significant blockade
same,"Effect on cocaine-induced DA release, Acute, second hr",DA release in NAcc [1]; [10],did not completely block
same,ED50 of DA2 receptor occupancy,"DA2 receptor; NAcc, [3H] spiperone labeling studies",1.0 mg/kg
same,DA2 receptor occupancy,DA2 receptor; high dose risperidone,70%
same,half-life,[2]; fast metabolizers,3 h
same,half-life,[2]; slow metabolizers,20 h
same,Affinity for DA2 receptors,DA2 receptors,high affinity
same,"Stereotypy maximum frequency, Day 2 (Subacute)",[3]; [11],about 50 counts
same,"Stereotypy Day 2 versus Day 1 baseline, Subacute",[3]; [12],increased stereotypy to a statistically significant degree
same,"Stereotypy maximum frequency with drug treatment, Day 1",[3]; risperidone 2 mg/kg s.c.,12 counts
same,"Effect on cocaine-induced stereotypic activity, Acute",[3]; [13],blocked
same,"Stereotypy versus baseline (habituation), Day 1 Acute",[3]; [14],did not affect
same,"5-HT release in NAcc Day 2 versus Day 1 baseline, Subacute","5-HT release in NAcc [4]; 24 hr after single dose, no further drug, 1 hr, cocaine: 15, 20, 50, 55 min time points",significantly increased
same,Increase in 5-HT release in NAcc during the time course (up to),"5-HT release in NAcc [4]; Acute, risperidone 2 mg/kg s.c.",about 60%
same,Further increase in 5-HT release on Day 2 compared to drug effect on Day 1 (approximate average),"5-HT release in NAcc [4]; Subacute, risperidone 2 mg/kg s.c. on Day 1",~25%
same,"Effect on cocaine-induced 5-HT release, Acute",5-HT release in NAcc [4]; [13],blocked
same,"5-HT release in NAcc versus baseline (habituation), Day 1 Acute",5-HT release in NAcc [4]; [14],significantly increased
same,Increase in 5-HIAA concentrations above baseline (up to),[5],up to 20%
same,"Locomotor activity frequency, Day 2 (Subacute)",[6]; [11],about 200 counts
same,"Locomotion Day 2 versus Day 1 baseline, Subacute",[6]; [12],did not affect locomotion to a statistically significant degree
same,"Locomotor activity frequency with drug treatment, Day1",[6]; risperidone 2 mg/kg s.c.,50 counts
same,"Effect on cocaine-induced locomotor (psychostimulant) activity, Acute",[6]; [13],blocked
same,"Locomotor activity (ambulations) versus baseline (habituation), Day 1 Acute",[6]; [14],did not affect
O=C(c1ccc(F)cc1)C1CCN(CCn2c(=O)[nH]c3ccccc3c2=O)CC1 [ketanserin],"Blockade of cocaine-induced DA release, Acute, compared with clozapine",DA release in NAcc [7],weaker than that of clozapine
same,Affinity for DA2 receptors,DA2 receptors,does not bind
same,"Blockade of cocaine-induced 5-HT release, Acute, compared with clozapine",5-HT release in NAcc [8],weaker than that of clozapine
same,Affinity for 5-HT2A receptors,5-HT2A receptors,high affinity
same,"Blockade of cocaine-induced psychomotor stimulant behavior, Acute, compared with clozapine",[9],weaker than that of clozapine
